Experimental findings from patent US7851467B2, “Carbamate compounds as 5-HT4 receptor agonists” (Theravance, Inc., priority 2005, dated 2010) are described below.

Data set [1] addresses T1, hERG cardiac potassium channel (Homo sapiens, UniProt Q12809).
T1 construct: host or cells: CHO-K1
Nature of the data set: In vitro voltage clamp assay of inhibition of potassium ion current in whole cells expressing hERG. The following applies: CHO-K1 cells stably transfected with hERG, pH 7.4, five-minute exposure. The class given is cell-based. On the procedure: Assay 4: In Vitro Voltage Clamp Assay of Inhibition of Potassium Ion Current in Whole Cells Expressing the hERG Cardiac Potassium Channel
CHO-K1 cells stably transfected with hERG cDNA were obtained from Gail Robertson at the University of Wisconsin. Cells were held in cryogenic storage until needed. Cells were expanded and passaged in Dulbecco's Modified Eagles Medium/F12 supplemented with 10% fetal bovine serum and 200 μg/mL geneticin. Cells were seeded onto poly-D-lysine (100 μg/mL) coated glass coverslips, in 35 mm^2 dishes (containing 2 mL medium) at a density that enabled isolated cells to be selected for whole cell voltage-clamp studies. The dishes were maintained in a humidified, 5% CO2 environment at 37° C.
Extracellular solution was prepared at least every 7 days and stored at 4° C. when not in use. […]
The coverslips on which the cells were seeded were transferred to a recording chamber and perfused continuously. […] Peak current amplitudes during the repolarization phase were determined using pClamp software. […]
Peak current amplitudes during the repolarization phase were determined using pCLAMP software. […] The normalized current means and standard errors for each condition were calculated and plotted versus the time course of the experiment. […]
In general terms: Block of hERG is tested as a sign of cardiac risk.

Data set [2] deals with Caco-2 (colon, adenocarcinoma; human) cell monolayer. Briefly: Caco-2 permeation assay (in vitro model of oral bioavailability). The settings on record: 100 μM test compound, 37° C., 60 min. The data set is classed as in vitro ADME. Here is the method: Assay 5: In Vitro Model of Oral Bioavailability: Caco-2 Permeation Assay
The Caco-2 permeation assay was performed to model the ability of test compounds to pass through the intestine and get into the blood stream after oral administration. The rate at which test compounds in solution permeate a cell monolayer designed to mimic the tight junction of human small intestinal monolayers was determined.
Caco-2 (colon, adenocarcinoma; human) cells were obtained from ATCC (American Type Culture Collection; Rockville, Md.). For the permeation study, cells were seeded at a density of 63,000 cells/cm^2 on pre-wetted transwells polycarbonate filters (Costar; Cambridge, Mass.). A cell monolayer was formed after 21 days in culture. Following cell culture in the transwell plate, the membrane containing the cell monolayer was detached from the transwell plate and inserted into the diffusion chamber (Costar; Cambridge, Mass.). The diffusion chamber was inserted into the heating block which was equipped with circulating external, thermostatically regulated 37° C. water for temperature control. […]
The permeation study was performed with test compound concentrations at 100 μM and with ^14C-mannitol to monitor the integrity of the monolayer. […] Samples were analyzed by HPLC or liquid scintillation counting for test compound and mannitol concentrations. The permeation coefficient (Kp) in cm/sec was calculated. […]
(In general: Caco-2 cells form a polarised layer with tight junctions and transporters.)

T1 sequence (Q12809 whole entry): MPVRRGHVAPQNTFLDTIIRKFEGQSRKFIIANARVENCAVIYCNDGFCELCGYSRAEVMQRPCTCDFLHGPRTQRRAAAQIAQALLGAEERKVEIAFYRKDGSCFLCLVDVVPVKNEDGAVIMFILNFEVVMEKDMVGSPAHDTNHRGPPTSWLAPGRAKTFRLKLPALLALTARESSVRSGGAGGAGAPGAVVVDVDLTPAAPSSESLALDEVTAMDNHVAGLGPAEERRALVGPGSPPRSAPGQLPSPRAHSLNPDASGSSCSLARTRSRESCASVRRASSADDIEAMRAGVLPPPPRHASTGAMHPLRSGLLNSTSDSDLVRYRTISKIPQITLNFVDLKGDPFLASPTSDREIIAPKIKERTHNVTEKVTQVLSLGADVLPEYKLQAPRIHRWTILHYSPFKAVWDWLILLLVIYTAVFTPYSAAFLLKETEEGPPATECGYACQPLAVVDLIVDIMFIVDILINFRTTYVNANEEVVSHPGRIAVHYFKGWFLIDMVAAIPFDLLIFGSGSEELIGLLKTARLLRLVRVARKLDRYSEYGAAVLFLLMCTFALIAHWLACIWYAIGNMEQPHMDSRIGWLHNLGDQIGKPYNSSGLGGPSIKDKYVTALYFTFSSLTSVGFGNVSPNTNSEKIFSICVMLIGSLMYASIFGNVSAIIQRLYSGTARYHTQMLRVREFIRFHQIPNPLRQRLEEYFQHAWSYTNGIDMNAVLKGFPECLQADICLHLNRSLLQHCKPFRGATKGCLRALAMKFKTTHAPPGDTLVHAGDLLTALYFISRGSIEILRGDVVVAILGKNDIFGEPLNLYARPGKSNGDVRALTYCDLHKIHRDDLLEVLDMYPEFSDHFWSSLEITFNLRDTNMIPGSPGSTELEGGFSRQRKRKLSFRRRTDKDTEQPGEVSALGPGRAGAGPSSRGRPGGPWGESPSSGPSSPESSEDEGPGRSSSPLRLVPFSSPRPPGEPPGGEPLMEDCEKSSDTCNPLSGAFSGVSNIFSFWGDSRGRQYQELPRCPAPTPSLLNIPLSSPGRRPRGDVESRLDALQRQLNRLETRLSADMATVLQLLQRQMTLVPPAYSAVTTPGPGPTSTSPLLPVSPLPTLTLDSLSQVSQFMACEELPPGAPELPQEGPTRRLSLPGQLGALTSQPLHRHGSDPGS

`CC(C)n1c(=O)n(C(=O)N[C@H]2C[C@H]3CC[C@@H](C2)N3CCCOC(=O)N2CCN(C(=O)C3CCCO3)CC2)c2ccccc21` (stereo partly drawn) [Example 1, 4-(tetrahydrofuran-2-carbonyl)piperazine-1-carboxylic acid 3-{(1S,3R,5R)-3-[(3-isopropyl-2-oxo-2,3-dihydrobenzoimidazole-1-carbonyl)amino]-8-aza-bicyclo[3.2.1]oct-8-yl}propyl ester]: the inhibition (in general, the share of the control response that was lost under treatment) at 5 min, 3 µM in data set [1] was ~9%. Further, the “Kp value (permeation coefficient)” value in data set [2] amounted to 60 ×10⁻⁶ cm/s.
